Here are results for three compounds from patent US9987296B2, “Compositions including anthocyanin or anthocyanidin for the prevention or treatment of Articular cartilage-associated conditions” (priority 2008, dated 2018).

“Also recorded” adds a separate entry of the source.

Assay type in all cases: cell-based
One test has as its system IGF-1. As to the kind of experiment: IGF-1 production by ELISA, cultured human chondrocytes. The settings on record: for IGF-1 production: cultured chondrocytes treated with compound, presence and absence of IL-1; for IGF-1 production compared to IL-1 alone: human chondrocytes in culture, 5 or 50 ug/mL (FIGS. 5, 6). As for the experimental part: Chondrocytes were prepared by the enzymatic digestion of knee cartilage, as previously described. (Ahmed S et al., J Nutr 2005 135:20962102). Chondrocytes were plated (1×10^6 cells/mL) in 35 mm culture dishes (BD, Mountain View, Calif.) and cultured in DMEM:F12 (Mediatech, Herndon, Va.) supplemented with 10% FCS and 1% Penn:Strep for 72 hrs at 37° C. and 5% CO2 in a tissue culture incubator. Chondrocytes were serum starved overnight and then exposed to either kuromanin or cyanidin chloride (5 or 50 ug/mL), progrado (2 or 10 ug/mL) alone or in combination in fresh serum-free medium for 1 hr prior to the addition of IL-β.
Human IGF-1 label in chondrocytes culture or cartilage explant media was quantified using a commercially available Human IGF-1 ELISA kit (R& D Systems) per manufacturer's directions.
In general terms: ELISA stands for enzyme-linked immunosorbent assay.

Test [1] has as its system human osteoarthritic cartilage explants. Description: Matrix synthesis (35S uptake) in human osteoarthritic cartilage explants. As for the experimental part: Bovine cartilage explants (full thickness, 6 mm in diameter) were harvested from fresh femoral condyles. Human osteochondral plugs were harvested using 6 mm osteochondral grafting donor tool (Arthrez 1981-06S, Naples, Fla.) from femoral condyles retrieved from total knee arthroplasty surgery that had been stored in DMEM at 20 degrees C. for less than 24 hours. Full-thickness cartilage explants were cut from the subchondral bone. Each of the 6 mm cartilage disks were divided into 4 equal quadrants. Each quadrant was placed in a different experimental group. This allowed for a paired comparison and controlled for differences in grade of arthritis, thickness of cartilage, cell density, etc. The explants were washed 4-5 times with DMEM with 10% calf serum and were allowed to stabilize for 24 hours in a tissue culture incubator. Explants were then serum starved (0.1% calf serum) for 24 hours prior to commencement of cyanidin chloride treatment.
3 mL fresh media with 20 uCi/mL of ^35S-labeled sodium sulfate (NEX0414 Perkin Elmer, Boston, Mass.) (DMEM with 10% CS) was added to each of the explants along with 30 uL of 50 mM stock cyanidin chloride (MW 322.7 g/mole) solution (diluted in DMSO) (Chromadex Inc., Irvine, Calif.) to give the final cyanidin chloride concentration of (200 or 500 uM) in culture. Explants were subjected to cyanidin chloride treatment for 48 hours.
Radioactive media was aspirated after 48 hours and explants were washed in ice-cold 1×PBS for 10 minutes×3. Each cartilage explant quadrant was blotted dry and was placed in 500 uL of 2 mg/mL Proteinase K (Fisher Scientific, Fair Lawn, N.J.) in TE Buffer solution (10 mM Tris, 1 mM EDTA) and was allowed to rotate at 57 degrees C. for 24 hours in a hybridization oven until completely dissolved. Quantification of ^35S-labeled proteoglycans complexed to alcian blue by rapid filtration in multiwall plates was adopted and modified from Masuda et al Anal. Biochem 1994; 217:167-75. 75 uL of dilution buffer (50 mM Sodium Acetate pH^− 5.8. 0.5% Triton X-100) was added to each well of a 96 well plate (Millipore Multiscreen 96-well filtration system, Millipore, Billerica, Mass.) 25 uL of each digested cartilage explant sample was then loaded followed by 150 uL of 0.2% alcian blue solution (Alcian Blue 8GX electrophoresis grade, Sigma-Aldrich Inc., St. Louis Mo.) and was allowed to rotate for 1 hour at room temperature. The 96-well plate was then placed over a vacuum-manifold to aspirate the contents of the wells through the screen. The 3×200 uL vacuum washes with wash buffer (50 mM sodium acetate pI-I 5.8, 100 mM sodium sulfate, 50 mM MgCl2) were then performed. The 96-well filtration plate was then completely dried at 57 degrees C. for 5 minutes in a hybridization oven and was exposed to storage phosphor screen for 24 hours (Packard Instrument Company Inc., Meriden. Conn.). Phosphorimaging with Cyclone model A431200 (Packard Instrument Company Inc. Meriden, Conn.) was performed to quantify ^35S uptake by proteoglycans. ^35S uptake by proteoglycans in cartilage explants was normalized to DNA by Quant-iT ds DNA Assay Kit (Invitrogen Inc., Carlsbad Calif.).
Reported clinical experiments indicate that 10% dextrose injected in the joint can have a therapeutic effect on osteoarthritis. To test this effect, human osteoarthritic cartilage explants (Grade II) were treated with glucose at physiologic (0.45%) or were treated with supraphysiologic (2.5% and 5%) concentrations with 500 uM cyanidin chloride.

The test system of a further test is human cartilage explants. As to the kind of experiment: Cartilage breakdown as determined by GAG release in human cartilage explants. The following applies: for GAG release under basal conditions: high dose (50 ug/mL) alone, no IL-1; for IL-1 induced GAG release (chondroprotection): human cartilage explants, IL-1 plus test agent 5 or 50 ug/mL, 72 hours. The source says: Human osteoarthritic cartilage samples were procured through the Tissue Procurement Facility of the University Hospitals of Cleveland/Case Western Reserve University and with prior approval of the IRB of University Hospitals of Cleveland. The cartilage samples were obtained from patients undergoing total anthroplasty of the knee due to degenerative joint diseases. In all cases care was taken to use only “macroscopically normal” cartilage samples. No samples were exposed to radiation solely for the purpose of these studies but almost all patients will have received X-rays as part of their clinical presentation during the execution of care. The same donor tissue was not used in all experiments but untreated controls were included in all protocols.
Full thickness cartilage slices (20-25 mg) were dissected from the cartilage using a sterile scalpel blade. Four to five cartilage pieces that were approximately equal in size and weight were transferred to each well of a 24-well, flat bottom plate (Nuns, Denmark) containing DMEM:F12 (1:1) supplemented with antibiotics and 10% FCS and cultured for 24 hours. Subsequently the cartilage explants were cultured overnight in serum free media. The cartilage explants were treated with IL-β alone or with IL-β positive test agents for 72 hours in serum free media. Explants cultured in the absence of IL-β or test agents were used as controls. Additionally, the actions of kuromanin or cyanidin chloride were examined independently of IL-β exposure (5 ng/mL). Where appropriate, explants were exposed to test agents 15 minutes prior to the treatment with IL-β. Total glycosaminoglycan present in the culture supernatant was estimated as described below.
At the end of culture period, the culture medium was collected from each group. A 50 uL aliquot of collected supernatant from each sample was utilized to estimate the total glycosaminoglycan (GAG) concentration by a colorimetric method employing a DMMB as previously described (Miller M J S et al., BMC Complementary and Alternative Med 2006 6; 13). Color intensity was read spectrophotometrically at 535 nm using the Lambda 25 spectrophotometer (Perkin-Elmer, CT) and the values were derived from a standard curve prepared using different concentrations of chondroitin sulfate. Results are expressed as micrograms of glycosaminoglycan released per mg of cartilage tissue.

For the compound `Oc1cc(O)c2cc(O)c(-c3ccc(O)c(O)c3)[o+]c2c1` [Cyanidin chloride], the “IGF-1 production (media levels)” value in the test with IGF-1 (IL-1 with high dose 50 ug/mL) is “no restoration of media IFG-1 levels”; in the test on IGF-1 (IL-1 with low dose 5 ug/mL), “no restoration of media IFG-1 levels”; in the test with IGF-1 (high dose (50 ug/mL) alone), “reduced IGF-1 production from control values”. Besides, in the test with IGF-1, the IGF-1 production entry is “Reduced production of IGF-1”. Besides, in the test with IGF-1, the “IGF-1 production compared to IL-1 alone” value was “greater than IL-1 alone when treated with cyanidin alone at high levels and at low levels in combination with IL-1”. For the same compound, the “synergy of cyanidin and glucose on matrix synthesis” value in test [1] (cyanidin 500 uM combined with glucose) is “did not have significant synergistic effect”. Besides, the “matrix synthesis (35S uptake)” value in test [1] (human OA Grade II explants, 500 uM at 0.45% glucose) is given as “no effect on matrix synthesis”; in test [1] (human OA grade II-III explants, 500 uM) it was “no effect on human OA explants; also recorded: did not increase matrix synthesis in human OA tissue”. Besides, in the test with human cartilage explants, the “GAG release under basal conditions” value is reported as “not evident”. Further, the “IL-1 induced GAG release (chondroprotection)” value was “blocked IL-1 induced GAG release” in the test with human cartilage explants (listed as CC1), “able to prevent GAG (glycosaminoglycan) release compared to control; also recorded: effective chondroprotective agents limiting the degradation of human cartilage against the catabolic effects of IL-1” in the test with human cartilage explants (listed as cyanidin) and “chondroprotective; also recorded: blocked” with human cartilage explants (listed as cyanidin chloride).

Turning to `OC[C@H]1O[C@@H](Oc2cc3c(O)cc(O)cc3[o+]c2-c2ccc(O)c(O)c2)[C@H](O)[C@@H](O)[C@@H]1O.[Cl-]` [Kuromanin chloride], the “IGF-1 production (media levels)” value in the test with IGF-1 (IL-1 with high dose 50 ug/mL) was “no effect over IL-1”; in the test on IGF-1 (IL-1 with low dose 5 ug/mL) it was “restoration of IGF-1 production”; in the test with IGF-1 (high dose (50 ug/mL) alone), “reduced IGF-1 protein levels in the media to a similar level as to that seen with IL-1”. For the same compound, in the test with IGF-1, the IGF-1 production result is reported as “Reduced production of IGF-1”. The “IGF-1 production compared to IL-1 alone” value in the test on IGF-1 was “greater than IL-1 alone when treated with kuromanin at high levels and at low levels in combination with 1L-1”. For the same compound, the “GAG release under basal conditions” value in the test on human cartilage explants is listed as “some catabolic effects that may reflect cell toxicity; also recorded: tendency for the high dose of kuromanin to promote GAG release”. Also, the “IL-1 induced GAG release (chondroprotection)” value in the test with human cartilage explants is reported as “able to prevent GAG (glycosaminoglycan) release compared to control; also recorded: effective chondroprotective agents limiting the degradation of human cartilage against the catabolic effects of IL-1; also recorded: blocked”; in the test with human cartilage explants (listed as KuCl) it was “blocked IL-1 induced GAG release”.

Take `O=C[C@H](O)[C@@H](O)[C@H](O)[C@H](O)CO` [glucose]: the “matrix synthesis (35S uptake)” value is “stimulate matrix synthesis more than higher concentrations of glucose; also recorded: beneficial effect” in test [1] (glucose 0.45% (low, physiologic)); “reduced matrix synthesis; also recorded: suppressed matrix synthesis” in test [1] (supraphysiologic glucose (2.5% and 5%)).
